Values after ≈ are worked out from the molar mass of the structure shown. “Also recorded” adds a separate entry of the source. Counter-ions that a name gives are not always drawn. Like-named read-outs stand apart in the source and are kept apart here.
Key:
physchem = conditions: oil or lipid
[1] = Single-dose pharmacokinetic study, artemether sublingual spray vs oral tablets; format: in vivo, human; conditions: for λz elimination rate constant, Plasma Artemether / Cmax / Tmax / AUC(0-t) / Vd/F / half-life: n = 16, mean ± SD; for Cmax / Tmax / AUC(0-t) / Vd/F / half-life / bioavailability: male, human, plasma; for AUC(0-t): read-out: AUC0-12, Plasma Artemether; for Vd/F: read-out: V/F apparent volume of distribution, Plasma Artemether; for half-life: read-out: t1/2 elimination half-life, Plasma Artemether (converted); for bioavailability: other: sublingual, ± S.D.
Procedure: Trials were carried out on healthy male adult human volunteers (16 subjects per cohort), and subject to normal ethical approval. Three single-dose regimes according to the present invention were studied, and compared to a regime using oral-dosed tablets, as follows: Spray formulations of artemether were prepared as detailed above, and administered, on a single occasion, to a group of volunteers by the sublingual route. […] Following administration of each dosage regime, blood samples were taken from the subjects, and plasma concentrations of artemether and its immediate metabolite dihydroartemesinin were determined, in order to compare bioavailability by the two routes.

[2] = Solubility tests in Miglyol 810; conditions: Miglyol 810, magnetic stirring; amount and volume per drug as in the block
[3] = Solubility enhancement by heat or essential oil (menthol) in Miglyol; format: physicochemical; conditions: heat or menthol added (separate solutions)
[4] = Repeat-dose artemether sublingual spray study (avoidance of autoinduction); format: in vivo, human; conditions: 30 mg artemether sublingual spray single on days 1 and 5, twice daily on days 2, 3 and 4
Procedure: A similar avoidance of autoinduction is expected with delivery by the transmucosal buccal or nasal route. In confidential trials, volunteers followed the following treatment: A single administration of 30 mg artemether sublingual spray 6 mg/actuation on days 1 and 5 following an overnight fast, and twice daily administrations of 30 mg artemether sublingual spray 3 mg/actuation on days 2, 3, and 4 following a morning or evening meal. Blood samples were collected for pharmacokinetic analysis at the following time points: Day 1: Predose, 0.25, 0.5, 0.75, 1, 1.5, 2, 2.5, 3, 4, 6, 8, and 12 h after dosing. Days 2, 3, and 4: pre morning dose and 0.5, 1, 2 and 4 h after morning dose and pre evening dose and 1 hour after evening dose. Day 5: Predose, 0.25, 0.5, 0.75, 1, 1.5, 2, 2.5, 3, 4, 6, 8, 12 h and 24 h after dosing.

[5] = 15 mg, T1: single sublingual 15 mg Artemether sublingual spray, 3 mg per actuation
[6] = 30 mg, T2: single sublingual 30 mg Artemether sublingual spray, 3 mg per actuation
[7] = 30 mg, T3: single sublingual 30 mg Artemether sublingual spray, 6 mg per actuation
[8] = po, 30 mg, T4: single oral 30 mg Artemether Tablets, 10 mg per Tablet

CCCNC(C)C(=O)Nc1ccccc1C (stereo not drawn) [Prilocaine Base]
solubility (physchem): ~137 mg/mL (≈ 622 mM)

CO[C@H]1O[C@@H]2O[C@@]3(C)CC[C@H]4[C@H](C)CC[C@@H]([C@H]1C)[C@@]24OO3 [Artemether]
absorption (comparison of AUC0-12), sublingual spray vs oral tablet dosing ([1]; 12 hours following the doses, preliminary results): significant and surprisingly higher absorption | λz elimination rate constant, Plasma Artemether ([1]; T1: single sublingual 15 mg Artemether sublingual spray, 3 mg per actuation): 1.11 ± 0.40 h⁻¹ | λz elimination rate constant, Plasma Artemether ([1]; T2: single sublingual 30 mg Artemether sublingual spray, 3 mg per actuation): 0.56 ± 0.20 h⁻¹ | λz elimination rate constant, Plasma Artemether ([1]; T3: single sublingual 30 mg Artemether sublingual spray, 6 mg per actuation): 0.59 ± 0.25 h⁻¹ | λz elimination rate constant, Plasma Artemether ([1]; T4: single oral 30 mg Artemether Tablets, 10 mg per Tablet): 0.31 ± 0.15 h⁻¹ | Cmax [1, 5]: 16.1 ± 8.69 ng/mL | Tmax [1, 5]: 1.7 ± 0.68 h | AUC(0-t) [1, 5]: 25.9 ± 13.9 ng·h/mL | Vd/F [1, 5]: 680 ± 330 L | half-life [1, 5]: 0.72 ± 0.3 h | Cmax [1, 6]: 32.1 ± 16.4 ng/mL | Tmax [1, 6]: 1.73 ± 0.82 h | AUC(0-t) [1, 6]: 76.6 ± 43.1 ng·h/mL | Vd/F [1, 6]: 1000 ± 550 L | half-life [1, 6]: 1.39 ± 0.49 h | Cmax [1, 7]: 35.2 ± 23.9 ng/mL | Tmax [1, 7]: 1.67 ± 0.77 h | AUC(0-t) [1, 7]: 71.1 ± 41.1 ng·h/mL | Vd/F [1, 7]: 1010 ± 490 L | half-life [1, 7]: 1.4 ± 0.59 h | bioavailability ([1]; 15 mg, T1 (15 mg sublingual spray, 3 mg/actuation) vs T4 (30 mg oral tablets), read-out: F-value FT1-T4 (relative bioavailability of artemether)): 167 ± 60% | bioavailability ([1]; 30 mg, T2 (30 mg sublingual spray, 3 mg/actuation) vs T4 (30 mg oral tablets), read-out: F-value FT2-T4 (relative bioavailability of artemether)): 224 ± 92% | bioavailability ([1]; 30 mg, T3 (30 mg sublingual spray, 6 mg/actuation) vs T4 (30 mg oral tablets), read-out: F-value FT3-T4 (relative bioavailability of artemether)): 209 ± 69% | Cmax [1, 8]: 10.1 ± 7.19 ng/mL | Tmax [1, 8]: 1.02 ± 0.86 h | AUC(0-t) [1, 8]: 34.6 ± 21 ng·h/mL | Vd/F [1, 8]: 3900 ± 2900 L | half-life [1, 8]: 3.44 ± 4.26 h

C=CCN1CC[C@]23c4c5ccc(O)c4O[C@H]2C(=O)CC[C@@]3(O)[C@H]1C5 [Naloxone]
solubility in Miglyol [2]: sparingly soluble

Oc1ccc2c3c1O[C@H]1[C@@H](O)CC[C@@]4(O)[C@@H](C2)N(CC2CCC2)CC[C@]314 [Nalbuphine HCl]
solubility in Miglyol [2]: not soluble

O=C1CC[C@@]2(O)[C@H]3Cc4ccc(O)c5c4[C@@]2(CCN3CC2CC2)[C@H]1O5 [Naltrexone Base]
solubility in Miglyol with the addition of heat or menthol [3]: soluble with the addition of heat or menthol | solubility in Miglyol [2]: sparingly soluble

C[C@H]1[C@@H](O)O[C@@H]2O[C@@]3(C)CC[C@H]4[C@H](C)CC[C@@H]1[C@@]24OO3 [Dihydroartemesinin]
pharmacokinetic analysis of plasma dihydroartemesinin, day 1 vs day 5 [4]: effectively identical response

COc1cccc(C2(O)CCCCC2CN(C)C)c1 (stereo not drawn) [Tramadol HCl]
solubility in Miglyol [2]: insoluble

CCCC1O[C@@H]2C[C@H]3[C@@H]4CCC5=CC(=O)C=C[C@]5(C)[C@H]4[C@@H](O)C[C@]3(C)[C@]2(C(=O)CO)O1 (stereo partly drawn) [Budesonide]
solubility in Miglyol with the addition of heat or menthol [3]: appeared to dissolve; also recorded: soluble with the addition of heat or menthol

Source: patent US20120058158A1, “Sublingual Pharmaceutical Composition Comprising a Neutral Oil” (priority 2009, published 2012)
